Biological target: T1, VMAT-2 (Homo sapiens, UniProt Q05940)
T1 construct: Novascreen Biosciences Corporation (contract assay provider) protocol Cat. No. 100-0751
Test: VMAT-2 binding affinity measurement (Novascreen protocol Cat. No. 100-0751)
Settings: for Ki: Novascreen Biosciences protocol Cat. No. 100-0751; for VMAT-2 binding affinity, in words, relative to (+)-DTBZ control (Compound 18): summary of the Table 9 data
Method: In addition, the VMAT-2 binding affinity of a fluoroalkyl tetrabinazine carbinol compound 38 bearing an acetoxy group at ring position-2 was also measured. VMAT-2 binding affinity measurements were carried out by Novascreen Biosciences Corporation (Hanover, Md., USA) using protocol Cat. No. 100-0751. Novascreen, Inc. is a commercial provider of biological assays for the pharmaceutical industry.

T1 sequence (Q05940 whole entry, species assumed): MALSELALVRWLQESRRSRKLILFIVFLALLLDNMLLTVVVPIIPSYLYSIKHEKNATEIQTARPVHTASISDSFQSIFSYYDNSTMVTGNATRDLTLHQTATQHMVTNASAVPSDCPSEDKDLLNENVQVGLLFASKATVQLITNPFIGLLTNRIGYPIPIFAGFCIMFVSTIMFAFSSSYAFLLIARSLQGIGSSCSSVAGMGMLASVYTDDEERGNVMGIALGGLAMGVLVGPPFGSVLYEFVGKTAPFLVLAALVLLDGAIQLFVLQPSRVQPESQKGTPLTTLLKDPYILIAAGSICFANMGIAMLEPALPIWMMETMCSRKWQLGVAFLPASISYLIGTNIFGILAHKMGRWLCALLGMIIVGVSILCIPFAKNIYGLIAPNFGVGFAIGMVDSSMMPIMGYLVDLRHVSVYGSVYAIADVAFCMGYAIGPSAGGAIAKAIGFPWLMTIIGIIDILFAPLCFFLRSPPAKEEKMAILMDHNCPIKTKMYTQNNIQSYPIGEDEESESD

| SMILES | Ki [nM] | VMAT-2 binding affinity, in words, relative to (+)-DTBZ control (Compound 18) |
| --- | --- | --- |
| COc1cc2c(cc1OC)[C@H]1C[C@H](O)[C@H](CC(C)(C)CC[19F])CN1CC2 [Compound 2-epi-32] | 2.6 | very high binding affinity |
| COc1cc2c(cc1OC)[C@H]1C[C@@H](O)[C@H](CCCC[19F])CN1CC2 [Compound 31] | 6.4 | very high binding affinity |
| COc1cc2c(cc1OC)[C@H]1C[C@@H](O)[C@H](CC(C)(C)CC[19F])CN1CC2 [Compound 32] | 0.45 | very high binding affinity |
| COc1cc2c(cc1OC)[C@H]1C[C@@](C#CCF)(OC(C)=O)[C@H](CC(C)C)CN1CC2 [Compound 38] |  | somewhat lower yet still robust binding activity |
| COc1cc2c(cc1OC)[C@H]1C[C@](O)(C#CCF)[C@H](CC(C)C)CN1CC2 [Compound 39] |  | somewhat lower yet still robust binding activity |

— patent US8053578B2, “Alpha-fluoroalkyl dihydrotetrabenazine imaging agents and probes” (General Electric Company, priority 2007, dated 2011)
